Test system: NCI-H196 complex spheroid growth, percent test/control
Experiment: Anticancer human tumor NCI-H196 cell line growth inhibition [AhR];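 further: seven days of drug exposure starting three days after plating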;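 on viability, T/C: 100% = DMSO vehicle control wells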
Details: for IC50: curve of first compound; for viability, T/C: stronger effect = lower value; active means viability on the fitted dose curve at most 10% of control; inactive means the rest
In short: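 Agents were dosed in half-log steps down from roughly clinical Cmax, or from 10 microM where Cmax was unknown, alone and with AhR antagonists. Read-out: percent test/control growth of tumor spheroids containing HUVEC and MSC stromal cells.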

COc1cc(Nc2ncc3c(n2)-c2ccc(Cl)cc2C(c2c(F)cccc2OC)=NC3)ccc1C(=O)O + Cc1ccccc1N=Nc1ccc(NC(=O)c2ccnn2C)c(C)c1
> 10 µM: IC50 (second compound 0.1 µM) | IC50 (second compound 0.316 µM) | IC50 (second compound 1 µM) | IC50 (second compound 3.16 µM) | IC50 (second compound 10 µM)
inactive: viability, T/C (second compound 0.1 µM, first compound 0.0316 µM) 83.2% | viability, T/C (second compound 0.1 µM, first compound 0.1 µM) 94.4% | viability, T/C (second compound 0.1 µM, first compound 0.316 µM) 108% | viability, T/C (second compound 0.1 µM, first compound 1 µM) 107% | viability, T/C (second compound 0.1 µM, first compound 3.16 µM) 123% | viability, T/C (second compound 0.1 µM, first compound 10 µM) 116% | viability, T/C (second compound 0.316 µM, first compound 0.0316 µM) 83.3% | viability, T/C (second compound 0.316 µM, first compound 0.1 µM) 89.3% | viability, T/C (second compound 0.316 µM, first compound 0.316 µM) 106% | viability, T/C (second compound 0.316 µM, first compound 1 µM) 118% | viability, T/C (second compound 0.316 µM, first compound 3.16 µM) 119% | viability, T/C (second compound 0.316 µM, first compound 10 µM) 115% | viability, T/C (second compound 1 µM, first compound 0.0316 µM) 85.5% | viability, T/C (second compound 1 µM, first compound 0.1 µM) 88.9% | viability, T/C (second compound 1 µM, first compound 0.316 µM) 95.9% | viability, T/C (second compound 1 µM, first compound 1 µM) 94.2% | viability, T/C (second compound 1 µM, first compound 3.16 µM) 111% | viability, T/C (second compound 1 µM, first compound 10 µM) 104% | viability, T/C (second compound 3.16 µM, first compound 0.0316 µM) 85.4% | viability, T/C (second compound 3.16 µM, first compound 0.1 µM) 86% | viability, T/C (second compound 3.16 µM, first compound 0.316 µM) 102% | viability, T/C (second compound 3.16 µM, first compound 1 µM) 97.5% | viability, T/C (second compound 3.16 µM, first compound 3.16 µM) 109% | viability, T/C (second compound 3.16 µM, first compound 10 µM) 117% | viability, T/C (second compound 10 µM, first compound 0.0316 µM) 89.8% | viability, T/C (second compound 10 µM, first compound 0.1 µM) 88.4% | viability, T/C (second compound 10 µM, first compound 0.316 µM) 96.3% | viability, T/C (second compound 10 µM, first compound 1 µM) 91.1% | viability, T/C (second compound 10 µM, first compound 3.16 µM) 108% | viability, T/C (second compound 10 µM, first compound 10 µM) 104%
